# Measurements reported in US7429607B2, “5-HT2B receptor antagonists” (Asterand UK Limited, priority 2002, dated 2008).
# What was measured:
# [1] = molecular target: T1, cloned human 5-HT2C receptor (Homo sapiens, UniProt P28335); assay: Human 5-HT2C receptor binding assay ([3H]mesulergine, CHO-K1 membranes); settings: displacement of [3H]mesulergine (1 nM), read-out: 5-HT2C pKi (converted)
# T1 construct: purchased Euroscreen; host or cells: CHO-K1 cells
# T1 sequence (P28335 33-458): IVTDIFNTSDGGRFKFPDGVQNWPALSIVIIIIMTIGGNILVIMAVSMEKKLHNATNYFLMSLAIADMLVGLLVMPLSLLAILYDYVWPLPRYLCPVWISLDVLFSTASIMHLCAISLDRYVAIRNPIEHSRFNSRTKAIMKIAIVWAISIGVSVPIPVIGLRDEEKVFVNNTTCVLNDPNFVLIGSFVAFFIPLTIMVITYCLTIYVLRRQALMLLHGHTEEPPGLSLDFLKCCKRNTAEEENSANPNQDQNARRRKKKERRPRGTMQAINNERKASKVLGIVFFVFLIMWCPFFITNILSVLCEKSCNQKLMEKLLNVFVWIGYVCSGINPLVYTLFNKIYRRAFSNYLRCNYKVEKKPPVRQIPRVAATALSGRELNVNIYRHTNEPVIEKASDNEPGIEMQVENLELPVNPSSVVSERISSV
# Procedure: (§1) The binding affinity of ligands for human 5-HT2A and 5-HT2C receptors was determined using the following assay.
# Membrane preparations from CHO-K1 cells expressing the cloned human 5-HT2C receptor were obtained (Euroscreen). The membranes were thawed rapidly and diluted in assay buffer containing Tris-HCl (50 mM, pH 7.7), ascorbic acid (0.1%) and pargyline (10 μM). The membranes were resuspended by homogenisation, prior to adding 6 μg of membranes to assay wells containing [^3H] mesulergine (1 nM), assay buffer (50 mM Tris at pH 7.7 and 0.1% ascorbic acid) containing pargyline (10 μM), and test compounds (1×10^−10 to 1×10^−4M). Non specific binding was determined in the presence of 100 μM mianserin. After 30 minutes incubation at 37° C., the assay mixture was filtered through a combination of GF-C and GF-B filters, pre-soaked in 1% bovine serum albumin, using a Brandel cell harvester, and were washed three times using ice cold Tris-HCl buffer (50 mM). Radioactivity retained on the filters was determined by liquid scintillation counting. For each test compound, the concentration that inhibited binding of [3H]mesulergine by 50% was determined using curve fitting software (Prism). Kd values (concentration of mesulergine required to occupy 50% of the receptor binding sites at equlibrium) determined from saturation binding studies were then used to calculate inhibition dissociation constants (Ki) using the following equation: […]
# [2] = molecular target: T2, cloned human 5-HT2A receptor (Homo sapiens, UniProt P28223); assay: Human 5-HT2A receptor binding assay ([3H]ketanserin, CHO-K1 membranes); settings: displacement of [3H]ketanserin (1 nM), read-out: 5-HT2A pKi (converted)
# T2 construct: purchased Euroscreen; host or cells: CHO-K1 cells
# Procedure: as §1
# Membrane preparations from CHO-K1 cells expressing the cloned human 5-HT2A receptor were obtained (Euroscreen). The membranes were thawed rapidly and diluted in assay buffer containing Tris-HCl (50 mM, pH 7.7). The membranes were resuspended by homogenisation, prior to adding 15 μg of membranes to assay wells containing [3H] ketanserin (1 nM), assay buffer (50 mM Tris at pH 7.4) containing pargyline (10 μM), and test compounds (1×10^−10 to 1×10^−4M). Non specific binding was determined in the presence of 100 μM mianserin. After 15 minutes incubation at 37° C., the assay mixture was filtered through a combination of GF-C and GF-B filters, pre-soaked in 0.05% Brij, using a Brandel cell harvester, and were washed three times using ice cold Tris-HCl buffer (50 mM). Radioactivity retained on the filters was determined by liquid scintillation counting. For each test compound, the concentration that inhibited binding of [^3H]ketanserin by 50% was determined using curve fitting software (Prism). Kd values (concentration of ketanserin required to occupy 50% of the receptor binding sites at equlibrium) determined from saturation binding studies were then used to calculate inhibition dissociation constants (Ki) using the following equation: […]
# [3] = molecular target: T3, human cloned 5-HT2B receptors (Homo sapiens, UniProt P41595); assay: Human cloned 5-HT2B receptor binding assay ([3H]LSD, CHO-K1 membranes); settings: displacement of [3H]LSD (1 nM), read-out: 5-HT2B pKi (converted)
# T3 construct: expressed in transfected cells; host or cells: CHO-K1 cells
# Procedure: The binding affinity of the compounds for human cloned 5-HT2B receptors was determined using the following assay.
# CHO-K1 cells expressing cloned 5-HT2B receptor were maintained in Ultra-CHO medium containing 400 μg/ml of G418, 100 U/ml penicillin, 100 μg/ml streptomycin, 2.5 μg/ml fungizone and 1% foetal bovine serum, in 95/5% O2/CO2 at 37° C. The cells were harvested using 0.25% trypsin and were centrifuged at 800 rpm for 8 minutes. The cells were homogenised in 50 mM HEPES buffer containing 1 mM disodium EDTA and 1 mM PMSF at pH 7.4, using a Dounce homogeniser (20 strokes). The homogenate was centrifuged at 2280 rpm (1000 g) and 4° C. for 10 minutes, after which the supernatant was removed by decanting. The pellet was re-homogenised as above, and the resulting supernatant removed and combined with that already obtained. The supernatant solution was then centrifuged at 18300 rpm (40000 g) for 10 minutes at 4° C. using a Sorvall centrifuge. The supernatant was removed, and the pellet was re-suspended in 50 mM buffer at pH 7.4 using a Ultra-turrax T25 Polytron, before centrifugation again at 40000 g as above. This wash procedure was repeated, after which the membrane preparation was stored at a concentration of 1 mg/ml at −80° C. until use.
# The membranes were thawed rapidly and diluted in assay buffer containing Tris-HCl (50 mM, pH 7.4), ascorbic acid (0.1%) and calcium chloride (4 mM). The membranes were homogenised to resuspend them, prior to adding 10 or 15 μg of membranes to assay wells containing [^3H]LSD (1 nM), assay buffer (50 mM Tris, 4 mM calcium chloride and 0.1% ascorbic acid) containing pargyline (10 μM), and the test compounds (1×10^−10 to 1×10^−4M). Non specific binding was determined in the presence of 100 μM 5-HT. After 30 minutes incubation at 37° C., the assay mixture was filtered through a combination of GF-C and GF-B filters, pre-soaked in 1% polyethyleneimine, using a Brandel cell harvester, and were washed three times using 50 mM Tris-HCl. Radioactivity retained on the filters was determined by liquid scintillation counting. For each test compound, the concentration that inhibited binding of [3H]LSD by 50% was determined using curve fitting software (Prism). Kd values (concentration of LSD required to occupy 50% of the receptor binding sites at equilibrium) determined from saturation binding studies were then used to calculate inhibition dissociation constants (Ki) using the following equation: […]
# This approach follows that set out in Kenakin, T.P. Pharmacologic analysis of drug-receptor interaction. Raven Press, New York, 2nd Edition.
# T3 sequence (P41595 whole entry): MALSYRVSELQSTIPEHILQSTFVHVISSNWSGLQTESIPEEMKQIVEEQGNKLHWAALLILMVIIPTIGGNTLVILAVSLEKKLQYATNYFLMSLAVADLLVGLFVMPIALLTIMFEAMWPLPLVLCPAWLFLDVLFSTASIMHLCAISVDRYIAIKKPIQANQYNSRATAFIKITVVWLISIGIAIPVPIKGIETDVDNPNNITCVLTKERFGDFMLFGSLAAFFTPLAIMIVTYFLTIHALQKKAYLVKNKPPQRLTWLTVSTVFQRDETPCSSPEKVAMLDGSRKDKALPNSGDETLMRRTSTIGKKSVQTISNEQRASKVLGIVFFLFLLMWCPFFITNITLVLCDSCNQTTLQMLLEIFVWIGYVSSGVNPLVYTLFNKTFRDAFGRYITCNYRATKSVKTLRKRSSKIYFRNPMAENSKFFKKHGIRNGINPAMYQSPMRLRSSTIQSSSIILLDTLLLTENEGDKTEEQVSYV
# T2 sequence (P28223 whole entry): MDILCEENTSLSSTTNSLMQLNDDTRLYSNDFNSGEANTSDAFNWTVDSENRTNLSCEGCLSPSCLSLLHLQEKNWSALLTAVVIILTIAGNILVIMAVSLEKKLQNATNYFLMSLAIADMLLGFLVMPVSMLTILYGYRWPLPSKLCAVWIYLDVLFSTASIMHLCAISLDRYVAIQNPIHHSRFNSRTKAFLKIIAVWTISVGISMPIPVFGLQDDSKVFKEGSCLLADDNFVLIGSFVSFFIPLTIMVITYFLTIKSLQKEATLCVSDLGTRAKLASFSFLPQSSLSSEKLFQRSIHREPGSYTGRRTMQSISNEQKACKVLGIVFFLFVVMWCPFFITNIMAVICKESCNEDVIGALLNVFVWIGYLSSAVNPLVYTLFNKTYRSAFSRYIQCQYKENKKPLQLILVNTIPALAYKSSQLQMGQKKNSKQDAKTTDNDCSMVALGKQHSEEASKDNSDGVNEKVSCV
SMILES,Ki [1],Ki [2],Ki [3],melting point
"Nc1nc(-c2ccc(F)c3ccccc23)co1 [Compound 4, 2-amino-4-(4′-fluoronaphth-1-yl)oxazole]",> 1000 nM,> 1000 nM,< 100 nM,171 to 174 °C
"Nc1nc(-c2cccc3ccc(Br)cc23)co1 [Compound 5, 2-amino-4-(7′-bromonaphth-1-yl)oxazole]",> 1000 nM,> 1000 nM,< 100 nM,189 to 190 °C
"CN(C)c1nc(-c2cccc3ccccc23)co1 [Compound 8, 2-dimethylamino-4-(naphth-1-yl)oxazole]",> 10000 nM,> 10000 nM,< 1000 nM,30 to 32 °C
"CC(=O)Nc1nc(-c2cccc3ccccc23)co1 [Compound 9, 2-acetylamino-4-(naphth-1-yl)oxazole]",> 1000 nM,> 10000 nM,< 1000 nM,188 to 190 °C
"CCOc1ccc2ccccc2c1-c1coc(N)n1 [Compound 10, 4-(2-ethoxy-naphthalen-1-yl)-oxazol-2-ylamine]",> 1000 nM,> 1000 nM,< 10 nM,
"COc1ccc(-c2coc(N)n2)c2ccccc12 [Compound 11, 4-(4-methoxy-naphthalen-1-yl)-oxazol-2-ylamine]",> 10000 nM,> 10000 nM,< 100 nM,
"Nc1nc(-c2c(OCc3ccccc3)ccc3ccccc23)co1 [Compound 12, 4-(2-benzyloxy-naphthalen-1-yl)-oxazol-2-ylamine]",,,< 1000 nM,
"Cc1c(-c2coc(N)n2)sc2ccccc12 [Compound 13, 4-(3-methyl-benzo[b]thiophen-2-yl)-oxazol-2-ylamine]",> 1000 nM,> 10000 nM,< 1000 nM,
"Nc1nc(-c2ccc3c(c2)OCCO3)co1 [Compound 14, 4-(2,3-dihydro-benzo[1,4]dioxin-6-yl)-oxazol-2-ylamine]",> 10000 nM,> 10000 nM,< 1000 nM,
"Nc1nc(-c2cccc3sccc23)co1 [Compound 15, 4-benzo[b]thiophen-4-yl-oxazol-2-ylamine]",> 1000 nM,> 1000 nM,< 1000 nM,
"COc1c(-c2coc(N)n2)ccc2ccccc12 [Compound 18, 4-(1-methoxy-naphthalen-2-yl)-oxazol-2-ylamine]",> 10000 nM,> 10000 nM,< 1000 nM,
"Nc1nc(-c2cccc3c(Br)cccc23)co1 [Compound 19, 4-(5-bromo-naphthalen-1-yl)-oxazol-2-ylamine]",> 1000 nM,> 10000 nM,< 10000 nM,
"N#Cc1ccc2cccc(-c3coc(N)n3)c2c1 [Compound 20, 4-(7-carbonitrile-naphthalen-1-yl)-oxazol-2-ylamine]",> 10000 nM,> 10000 nM,< 10000 nM,
"N#Cc1cccc2c(-c3coc(N)n3)cccc12 [Compound 21, 4-(5-carbonitrile-naphthalen-1-yl)-oxazol-2-ylamine]",> 1000 nM,> 10000 nM,< 10000 nM,
"Nc1nc(-c2c(O)ccc3ccccc23)co1 [Compound 22, 1-(2-amino-oxazol-4-yl)-naphthalen-2-ol]",,> 1000 nM,< 100 nM,
"COC(=O)COc1ccc2ccccc2c1-c1coc(N)n1 [Compound 23, [1-(2-amino-oxazol-4-yl)-naphthalen-2-yloxy]-acetic acid methyl ester]",> 10000 nM,,< 1000 nM,
"NC(=O)c1ccc2cccc(-c3coc(N)n3)c2c1 [Compound 24, 8-(2-amino-oxazol-4-yl)-naphthalene-2-carboxylic acid amide]",> 10000 nM,> 10000 nM,< 10000 nM,
"COc1ccc2ccccc2c1-c1oc(N)nc1C [Compound 26, 5-(2-methoxy-naphthalen-1-yl)-4-methyl-oxazol-2-ylamine]",,> 1000 nM,< 10 nM,
"CC(=O)OCc1nc(N)oc1-c1cccc2ccccc12 [Compound 28, acetic acid 2-amino-5-naphthalen-1-yl-oxazol-4-ylmethyl ester]",,> 10000 nM,< 100 nM,
"Nc1nc(CO)c(-c2cccc3ccccc23)o1 [Compound 29, (2-amino-5-naphthalen-1-yl-oxazol-4-yl)-methanol]",> 1000 nM,,< 100 nM,
"Cc1oc(N)nc1-c1cccc2ccccc12 [Compound 30, 5-Methyl-4-naphthalen-1-yl-oxazol-2-ylamine]",,> 10000 nM,< 100 nM,
